From US9187515B2, “2′,4′-fluoro nucleosides for the treatment of HCV” (Idenix Pharmaceuticals, Inc., priority 2013, dated 2015)

Legend:
[1] = tested on: HCV genotype 1b replicon in Huh-7-derived cell line (Zluc); test: HCV replicon assay (luciferase reporter); format: cell-based; conditions: Hepatitis C virus; Zluc cells, 72 hours of incubation
Experimental: Huh-7-derived cell line (Zluc) that harbors an HCV genotype 1b replicon and a luciferase reporter gene was grown in Dulbecco's Modified Eagle Medium (DMEM) supplemented with 10% fetal bovine serum, 2 mM GlutaMAX, 1% MEM nonessential amino acids, 100 IU/mL penicillin, 100 μg/mL streptomycin, and 0.5 mg/mL Geneticin® (G418). For dose response testing the cells were seeded in 96-well plates at 7.5×10^3 cells per well in a volume of 50 μL, and incubated at 37° C./5% CO2. Drug solutions were made up freshly in Huh-7 media as 2× stocks. Ten additional 5-fold dilutions were prepared from these stocks in DMEM without G418. At least three hours after Zluc cells were seeded, drug treatment was initiated by adding 50 μL of drug dilutions to the plates in duplicate. Final concentrations of drug ranged from 100 μM to 0.0000512 μM. Cells were then incubated at 37° C./5% CO2. Alternatively, compounds were tested at two concentrations (1 μM and 10 μM). […] For this, media was removed from the plates via gentle tapping. […] The plates were shaken gently for 3 min at room temperature and luminescence was measured on a Victor^3 V 1420 multilabel counter (Perkin Elmer) with a 1 second read time using a 700 nm cut-off filter. The EC50 values were calculated from dose response curves from the resulting best-fit equations determined by Microsoft Excel and XLfit 4.1 software. […]

[2] = Cytotoxicity evaluation, CellTiter-Blue Cell Viability Assay; format: cell-based; conditions: human, Zluc cells
[3] = molecular target: T1, wild-type HCV genotype 1b NS5B protein (recombinant HCV polymerase) (Hepatitis C virus genotype 1b, UniProt Q9WMX2); test: HCV polymerase enzyme assay, wild-type; format: biochemical
T1 construct: HCV genotype 1b NS5B protein were used to generate recombinant HCV polymerases (with a deletion of the 21 carboxy terminal amino acids); made in house
From the text: (§1) Test compounds in the form of nucleoside triphosphates were examined for inhibitory activity against purified HCV polymerase in a standard assay. Bacterial expression constructs encoding the approximately 65 kDa HCV genotype 1b NS5B protein were used to generate recombinant HCV polymerases (with a deletion of the 21 carboxy terminal amino acids). Both the wild-type genotype 1b protein and protein containing the S282T mutation were expressed and purified for use in the enzymatic activity assay.
(§2) The enzymatic activity assay measured the inhibitory effect of increasing concentrations of test compound on the incorporation of α-[^33P]-labeled nucleotide into trichloroacetic acid-precipitable material. Recombinant polymerase and synthetic RNA template were combined in reaction buffer containing ribonucleoside triphosphates, α-[^33P]-labeled nucleotide and eight concentrations of test compound in three-fold dilutions. […]
(§3) Reactions were terminated by the addition of ice-cold trichloroacetic acid and sodium pyrophosphate to promote precipitation of newly-synthesized ribonucleic acid. Precipitable material from the reactions was collected by filtration onto 96-well filter plates, washed extensively with water, and quantified by liquid scintillation.
(§4) The inhibitory activity of test compounds was determined by fitting results to dose-response curves using XLfit software.

[4] = molecular target: T2, HCV genotype 1b NS5B protein containing the S282T mutation (Hepatitis C virus genotype 1b, UniProt Q9WMX2, S2701T); test: HCV polymerase enzyme assay, S282T mutant; format: biochemical; conditions: nucleoside triphosphate; S282T genotype 1b NS5B; 2 h at 30° C.
T2 construct: HCV genotype 1b NS5B protein were used to generate recombinant HCV polymerases (with a deletion of the 21 carboxy terminal amino acids); made in house
From the text: as §1, §2, §3, §4

SMILES	EC50 [1] [µM]	CC50 at 72 h [2] [µM]	IC50 [3] [µM]	IC50 [4] [µM]
O=c1ccn([C@@H]2O[C@](F)(CO)[C@@H](O)[C@H]2F)c(=O)[nH]1 [Compound 101, 1-((2R,3R,4S,5S)-3,5-difluoro-4-hydroxy-5-(hydroxymethyl)tetrahydrofuran-2-yl)pyrimidine-2,4(1H,3H)-dione]	> 10	> 50		
Nc1ccn([C@@H]2O[C@](F)(CO)[C@@H](O)[C@H]2F)c(=O)n1 [Compound 105]	0.25 to 1	> 50		
O=c1ccn([C@@H]2O[C@](F)(COP(=O)(O)OP(=O)(O)OP(=O)(O)O)[C@@H](O)[C@H]2F)c(=O)[nH]1 [Compound 201]			0.25 to 1	< 0.25
Nc1ccn([C@@H]2O[C@](F)(COP(=O)(O)OP(=O)(O)OP(=O)(O)O)[C@@H](O)[C@H]2F)c(=O)n1 [Compound 205]			< 0.25	< 0.25
